Measurements taken from patent EP0879051B9, “RATE-CONTROLLED TRANSDERMAL ADMINISTRATION OF RISPERIDONE” (JANSSEN PHARMACEUTICA N.V., priority 1995, dated 1996).

Assay: In vitro transdermal permeation of risperidone, two-compartment diffusion cell
Type: in vitro ADME, hairless rats
Procedure: Experimental Part : In vitro study of the transdermal permeation of risperidone.
An in vitro model using a vertical, two-compartment diffusion cell assembly mounted with freshly excised full thickness abdominal skin of hairless rats (Iffa credo) was used in this study. […] The receptor solution in all experiments consisted of Hanks Balanced Salt Solution (Gibco BRL) with sodium azide). The skin permeation profile was followed for up to 50 h by sampling the receptor solution and assaying the drug concentration by measuring the radioactivity (Ready Safe, Beckmann-Wallac 1410LKB). The ratio of the cumulated quantities detected in the receptor compartment to the skin area (ng/cm^2) were plotted in function of the time and the flux of risperidone through the skin in the presence of various solvents and skin permeation enhancers was deduced from the linear part of the plotted results.

[1] = Experiment 2: donor borate buffer pH 10, 0.1 M (900 µl/ml) + ethanol (95%; 100 µl/ml) + risperidone (100 µg/ml)
[2] = Experiment 4: donor propylene glycol + lauric acid (LA) 5%, risperidone 10 mg/ml
[3] = Experiment 4: donor propylene glycol + oleic acid (OA) 5%, risperidone 10 mg/ml
[4] = donor propylene glycol, 0% enhancer, risperidone 10 mg/ml

Cc1nc2n(c(=O)c1CCN1CCC(c3noc4cc(F)ccc34)CC1)CCCC2 [risperidone, 3-[2-[4-(6-fluoro-1,2-benzisoxazol-3-yl)-1-piperidinyl]ethyl]-6,7,8,9-tetrahydro-2-methyl-4H-pyrido[1,2-a]pyrimidin-4-one]
flux (Experiment 1: donor borate buffer pH 10, 0.1 M + risperidone at 40mg/ml): 0.181 µg/cm^2.h
flux [1]: 0.869 µg/cm^2.h
latency period [1]: 13.9 h
flux (1%) (Experiment 3: donor propylene glycol + eucalyptus oil 1%, risperidone 10 mg/ml): 4.54 µg/cm^2.h
latency period (5%) (Experiment 3: donor propylene glycol + eucalyptus oil 5%, risperidone 10 mg/ml): 6.2 h
flux (5%) (Experiment 3: donor propylene glycol + eucalyptus oil 5%, risperidone 10 mg/ml, very high flux probably due to skin damage): 126.74 µg/cm^2.h
latency period (LA %) (Experiment 3: donor propylene glycol + eucalyptus oil (printed 'LA %'), risperidone 10 mg/ml): 15.2 h
flux (5% LA) [2]: 15.39 µg/cm^2.h
latency period (5% LA) [2]: 4.3 h
flux (5% OA) [3]: 18.9 µg/cm^2.h
latency period (5% OA) [3]: 17 h
flux (0%) [4]: 3.89 µg/cm^2.h
latency period (0%) [4]: 14.2 h
